Assay results from PubChem BioAssay (NCI).
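These data come from cells grown in 96-well plates and exposed to compound for 48 hours at five concentrations. The concentration for 50% growth inhibition is given as GI50. TGI is the concentration that stops growth completely.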

Assays:
Experiment in all cases: NCI anticancer screen, dose series, 48 h
K-562 leukemia = test system: K-562 leukemia
LOX IMVI melanoma = test system: LOX IMVI melanoma
A549 NSCLC = test system: A549 NSCLC
UO-31 renal = test system: UO-31 renal
A498 renal = test system: A498 renal
ACHN renal = test system: ACHN renal
SR leukemia = test system: SR leukemia
KM12 colon = test system: KM12 colon
SNB-75 CNS = test system: SNB-75 CNS
IGROV1 ovarian = test system: IGROV1 ovarian
OVCAR-3 ovarian = test system: OVCAR-3 ovarian
COLO 205 colon = test system: COLO 205 colon
M14 melanoma = test system: M14 melanoma
MDA-MB-231 breast = test system: MDA-MB-231 breast
PC-3 prostate = test system: PC-3 prostate
SN12C renal = test system: SN12C renal
OVCAR-8 ovarian = test system: OVCAR-8 ovarian
HT29 colon = test system: HT29 colon
RPMI-8226 leukemia = test system: RPMI-8226 leukemia
EKVX NSCLC = test system: EKVX NSCLC
OVCAR-4 ovarian = test system: OVCAR-4 ovarian
SW-620 colon = test system: SW-620 colon
OVCAR-5 ovarian = test system: OVCAR-5 ovarian
NCI/ADR-RES ovarian = test system: NCI/ADR-RES ovarian
HOP-92 NSCLC = test system: HOP-92 NSCLC
786-0 renal = test system: 786-0 renal
SF-295 CNS = test system: SF-295 CNS
MOLT-4 leukemia = test system: MOLT-4 leukemia
SK-OV-3 ovarian = test system: SK-OV-3 ovarian
NCI-H23 lung = test system: NCI-H23 lung
TK-10 renal = test system: TK-10 renal
T-47D breast = test system: T-47D breast
SK-MEL-5 melanoma = test system: SK-MEL-5 melanoma
U251 CNS = test system: U251 CNS
SF-539 CNS = test system: SF-539 CNS
HCT-15 colon = test system: HCT-15 colon
SK-MEL-2 melanoma = test system: SK-MEL-2 melanoma
MDA-MB-435 = test system: MDA-MB-435
NCI-H460 lung = test system: NCI-H460 lung
MCF7 breast = test system: MCF7 breast
UACC-257 melanoma = test system: UACC-257 melanoma
DU-145 prostate = test system: DU-145 prostate
SNB-19 CNS = test system: SNB-19 CNS
CAKI-1 renal = test system: CAKI-1 renal
HL-60(TB) leukemia = test system: HL-60(TB) leukemia
UACC-62 melanoma = test system: UACC-62 melanoma
NCI-H522 lung = test system: NCI-H522 lung
SF-268 CNS = test system: SF-268 CNS
HCT-116 colon = test system: HCT-116 colon
NCI-H226 lung = test system: NCI-H226 lung
BT-549 breast = test system: BT-549 breast
HCC-2998 colon = test system: HCC-2998 colon
HOP-62 NSCLC = test system: HOP-62 NSCLC
CCRF-CEM leukemia = test system: CCRF-CEM leukemia
SK-MEL-28 melanoma = test system: SK-MEL-28 melanoma
MALME-3M melanoma = test system: MALME-3M melanoma

Fc1ccc2c(c1)C1=C(CO2)C(c2ccc(Cl)cc2)NC(=S)N1 (stereo not drawn)
GI50 (K-562 leukemia): 30.4 µM
TGI (K-562 leukemia): > 100 µM
GI50 (LOX IMVI melanoma): 23 µM
TGI (LOX IMVI melanoma): 61.7 µM
GI50 (A549 NSCLC): 33.2 µM
TGI (A549 NSCLC): > 100 µM
GI50 (UO-31 renal): 27.8 µM
TGI (UO-31 renal): 84 µM
GI50 (A498 renal): 17.4 µM
TGI (A498 renal): 73.7 µM
GI50 (ACHN renal): 37.4 µM
TGI (ACHN renal): > 100 µM
GI50 (SR leukemia): 13 µM
TGI (SR leukemia): 50.3 µM
GI50 (KM12 colon): 17.8 µM
TGI (KM12 colon): 38.9 µM
GI50 (SNB-75 CNS): 96.8 µM
TGI (SNB-75 CNS): > 100 µM
GI50 (IGROV1 ovarian): 24.3 µM
TGI (IGROV1 ovarian): 61 µM
GI50 (OVCAR-3 ovarian): 14.7 µM
TGI (OVCAR-3 ovarian): 49.5 µM
GI50 (COLO 205 colon): 31.3 µM
TGI (COLO 205 colon): 90.9 µM
GI50 (M14 melanoma): 24 µM
TGI (M14 melanoma): 57.5 µM
GI50 (MDA-MB-231 breast): 18.8 µM
TGI (MDA-MB-231 breast): 55.7 µM
GI50 (PC-3 prostate): 37.2 µM
TGI (PC-3 prostate): > 100 µM
GI50 (SN12C renal): 17.7 µM
TGI (SN12C renal): 40.2 µM
GI50 (OVCAR-8 ovarian): 42.6 µM
TGI (OVCAR-8 ovarian): > 100 µM
GI50 (HT29 colon): 51.3 µM
TGI (HT29 colon): > 100 µM
GI50 (RPMI-8226 leukemia): 11.1 µM
TGI (RPMI-8226 leukemia): 34.5 µM
GI50 (EKVX NSCLC): 37.4 µM
TGI (EKVX NSCLC): > 100 µM
GI50 (OVCAR-4 ovarian): 51.9 µM
TGI (OVCAR-4 ovarian): > 100 µM
GI50 (SW-620 colon): 27.3 µM
TGI (SW-620 colon): 93.8 µM
GI50 (OVCAR-5 ovarian): 28.2 µM
TGI (OVCAR-5 ovarian): 84.3 µM
GI50 (NCI/ADR-RES ovarian): 29.8 µM
TGI (NCI/ADR-RES ovarian): 65.4 µM
GI50 (HOP-92 NSCLC): 61 µM
TGI (HOP-92 NSCLC): > 100 µM
GI50 (786-0 renal): 21.3 µM
TGI (786-0 renal): 46 µM
GI50 (SF-295 CNS): 15.6 µM
TGI (SF-295 CNS): 47.3 µM
GI50 (MOLT-4 leukemia): 39.5 µM
TGI (MOLT-4 leukemia): > 100 µM
GI50 (SK-OV-3 ovarian): 68.8 µM
TGI (SK-OV-3 ovarian): > 100 µM
GI50 (NCI-H23 lung): 26 µM
TGI (NCI-H23 lung): 58.5 µM
GI50 (TK-10 renal): 59.1 µM
TGI (TK-10 renal): > 100 µM
GI50 (T-47D breast): 63.2 µM
TGI (T-47D breast): > 100 µM
GI50 (SK-MEL-5 melanoma): 19.2 µM
TGI (SK-MEL-5 melanoma): 49.5 µM
GI50 (U251 CNS): 18.7 µM
TGI (U251 CNS): 63.1 µM
GI50 (SF-539 CNS): 23 µM
TGI (SF-539 CNS): 44.1 µM
GI50 (HCT-15 colon): 92.6 µM
TGI (HCT-15 colon): > 100 µM
GI50 (SK-MEL-2 melanoma): 24.3 µM
TGI (SK-MEL-2 melanoma): 46.9 µM
GI50 (MDA-MB-435): 21.6 µM
TGI (MDA-MB-435): 51.1 µM
GI50 (NCI-H460 lung): 21.9 µM
TGI (NCI-H460 lung): 61.8 µM
GI50 (MCF7 breast): 18.1 µM
TGI (MCF7 breast): 42.2 µM
GI50 (UACC-257 melanoma): 29.4 µM
TGI (UACC-257 melanoma): 95.3 µM
GI50 (DU-145 prostate): 28 µM
TGI (DU-145 prostate): > 100 µM
GI50 (SNB-19 CNS): 44.1 µM
TGI (SNB-19 CNS): > 100 µM
GI50 (CAKI-1 renal): 19.1 µM
TGI (CAKI-1 renal): 59.6 µM
GI50 (HL-60(TB) leukemia): 31.6 µM
TGI (HL-60(TB) leukemia): > 100 µM
GI50 (UACC-62 melanoma): 18.4 µM
TGI (UACC-62 melanoma): 63.7 µM

Cc1ccc(Nc2cc(C)nc(NCCCNc3ccnc4cc(Cl)ccc34)n2)cc1
GI50 (LOX IMVI melanoma): 1.38 µM
TGI (LOX IMVI melanoma): 2.83 µM
GI50 (A549 NSCLC): 1.65 µM
TGI (A549 NSCLC): 3.41 µM
GI50 (UO-31 renal): 1.43 µM
TGI (UO-31 renal): 2.87 µM
GI50 (A498 renal): 1.06 µM
TGI (A498 renal): 2.4 µM
GI50 (NCI-H522 lung): 1.77 µM
TGI (NCI-H522 lung): 3.37 µM
GI50 (ACHN renal): 1.54 µM
TGI (ACHN renal): 2.91 µM
GI50 (SF-268 CNS): 1.52 µM
TGI (SF-268 CNS): 3.14 µM
GI50 (KM12 colon): 1.69 µM
TGI (KM12 colon): 3.26 µM
GI50 (SNB-75 CNS): 1.3 µM
TGI (SNB-75 CNS): 2.56 µM
GI50 (IGROV1 ovarian): 1.82 µM
TGI (IGROV1 ovarian): 3.98 µM
GI50 (OVCAR-3 ovarian): 1.7 µM
TGI (OVCAR-3 ovarian): 3.5 µM
GI50 (COLO 205 colon): 1.36 µM
TGI (COLO 205 colon): 2.77 µM
GI50 (M14 melanoma): 1.56 µM
TGI (M14 melanoma): 3.33 µM
GI50 (MDA-MB-231 breast): 1.38 µM
TGI (MDA-MB-231 breast): 2.87 µM
GI50 (PC-3 prostate): 1.57 µM
TGI (PC-3 prostate): 3.79 µM
GI50 (HCT-116 colon): 1.09 µM
TGI (HCT-116 colon): 2.81 µM
GI50 (SN12C renal): 1.49 µM
TGI (SN12C renal): 3.11 µM
GI50 (OVCAR-8 ovarian): 1.67 µM
TGI (OVCAR-8 ovarian): 3.25 µM
GI50 (HT29 colon): 0.481 µM
TGI (HT29 colon): 2.06 µM
GI50 (RPMI-8226 leukemia): 1.5 µM
TGI (RPMI-8226 leukemia): 3.95 µM
GI50 (NCI-H226 lung): 2.14 µM
TGI (NCI-H226 lung): 5.91 µM
GI50 (BT-549 breast): 1.63 µM
TGI (BT-549 breast): 3.4 µM
GI50 (HCC-2998 colon): 1.38 µM
TGI (HCC-2998 colon): 2.8 µM
GI50 (OVCAR-4 ovarian): 1.24 µM
TGI (OVCAR-4 ovarian): 2.82 µM
GI50 (SW-620 colon): 1.31 µM
TGI (SW-620 colon): 2.83 µM
GI50 (OVCAR-5 ovarian): 1.85 µM
TGI (OVCAR-5 ovarian): 4.62 µM
GI50 (NCI/ADR-RES ovarian): 1.73 µM
TGI (NCI/ADR-RES ovarian): 3.54 µM
GI50 (HOP-92 NSCLC): 1.16 µM
TGI (HOP-92 NSCLC): 2.89 µM
GI50 (786-0 renal): 1.73 µM
TGI (786-0 renal): 3.31 µM
GI50 (SF-295 CNS): 1.51 µM
TGI (SF-295 CNS): 2.92 µM
GI50 (MOLT-4 leukemia): 2.01 µM
TGI (MOLT-4 leukemia): 6.67 µM
GI50 (SK-OV-3 ovarian): 1.57 µM
TGI (SK-OV-3 ovarian): 3.35 µM
GI50 (HOP-62 NSCLC): 1.38 µM
TGI (HOP-62 NSCLC): 2.78 µM
GI50 (NCI-H23 lung): 1.78 µM
TGI (NCI-H23 lung): 3.63 µM
GI50 (TK-10 renal): 1.81 µM
TGI (TK-10 renal): 3.29 µM
GI50 (T-47D breast): 1.75 µM
TGI (T-47D breast): 4.14 µM
GI50 (SK-MEL-5 melanoma): 1.4 µM
TGI (SK-MEL-5 melanoma): 2.71 µM
GI50 (U251 CNS): 1.32 µM
TGI (U251 CNS): 2.67 µM
GI50 (SF-539 CNS): 1.59 µM
TGI (SF-539 CNS): 3.05 µM
GI50 (CCRF-CEM leukemia): 0.945 µM
TGI (CCRF-CEM leukemia): 3.79 µM
GI50 (HCT-15 colon): 0.767 µM
TGI (HCT-15 colon): 2.21 µM
GI50 (SK-MEL-28 melanoma): 1.62 µM
TGI (SK-MEL-28 melanoma): 3.06 µM
GI50 (MALME-3M melanoma): 1.82 µM
TGI (MALME-3M melanoma): 3.74 µM
GI50 (SK-MEL-2 melanoma): 1.83 µM
TGI (SK-MEL-2 melanoma): 3.34 µM
GI50 (MDA-MB-435): 1.41 µM
TGI (MDA-MB-435): 2.7 µM
GI50 (NCI-H460 lung): 1.57 µM
TGI (NCI-H460 lung): 3.23 µM
GI50 (MCF7 breast): 1.16 µM
TGI (MCF7 breast): 2.72 µM
GI50 (UACC-257 melanoma): 1.74 µM
TGI (UACC-257 melanoma): 3.22 µM
GI50 (DU-145 prostate): 1.97 µM
TGI (DU-145 prostate): 4.14 µM
GI50 (SNB-19 CNS): 1.75 µM
TGI (SNB-19 CNS): 3.84 µM
GI50 (CAKI-1 renal): 1.46 µM
TGI (CAKI-1 renal): 2.85 µM
GI50 (HL-60(TB) leukemia): 1.84 µM
TGI (HL-60(TB) leukemia): 4.81 µM
GI50 (UACC-62 melanoma): 1.68 µM
TGI (UACC-62 melanoma): 3.19 µM
